System: P. falciparum 3D7 parasites (schizonts)
Experiment: YnMyr treatment of schizonts: morphology and life cycle progression
Format: cell-based
Details: up to 50 μM, 5 h

SMILES: C#CCCCCCCCCCCCC(=O)O [YnMyr, tetradec-13-ynoic acid]
- changes in morphology or life cycle progression: no changes were observed in morphology or life cycle progression

From PMC4739506 (Nature chemistry, 2013)
